ChEMBL document CHEMBL6078624, “Structure-based discovery of a 4,5-Dihydropyrazole-cored PET ligand for imaging of receptor-interacting serine/threonine-protein kinase 1 (RIPK1) in the brain” (Eur J Med Chem, 2024)

Legend:
HT-29 = assay: Anti-necroptotic activity against TNF induced human HT-29 cells assessed as cell viability incubated for 48 hrs by Cell Titer-Glo luminescent cell viability assay; format: functional, cell-based; conditions: HT-29, 48 h
L929 = assay: Anti-necroptotic activity against TNF induced mouse L929 cells assessed as cell viability incubated for 24 hrs by Cell Titer-Glo luminescent cell viability assay; format: functional, cell-based; conditions: L929, 24 h

For Cc1ncc(-c2ccc3nc(N[11C](C)=O)sc3c2)cc1NC(=O)CC1CCCCC1, the IC50 (HT-29) was 23 nM and the IC50 (L929) was 13 nM.
